Entries after “also recorded” stand apart in the source; their conditions may differ.
How the values were obtained:
Bcl-2 = Bcl-2 (Homo sapiens, UniProt P10415); conditions: cited from earlier work
MCL-1 = MCL-1 (Homo sapiens, UniProt Q07820); conditions: cited from earlier work
[1] = test system: primary cells from patients with B-cell malignancies; conditions: in vitro; cited from earlier work
[2] = test system: lymphoma and other blood cancers; conditions: cited from earlier work
CCR7 = assay: Flow cytometry of surface CCR7 expression in CLL cells from treated patients; format: in vivo, human; conditions: for change in surface CCR7 expression compared with naïve patients: CLL patients on treatment
Experimental: Systems). […] Data acquisition was performed on a BD FACSCanto™ 11 Flow Cytometer (BD Biosciences).

BCL-XL and BCL-W = conditions: cited from earlier work
[3] = test system: patients with chronic lymphocytic leukemia (CLL); conditions: cited from earlier work
CD20 (human) = CD20 (human) (UniProt P11836)
Bcl-2 mRNA = conditions: cited from earlier work
[4] = biological target: T1, human CC motif receptor 7 (CCR7) (human, UniProt P32248 25-378); assay: cell-based or functional assay
T1 sequence (looked up): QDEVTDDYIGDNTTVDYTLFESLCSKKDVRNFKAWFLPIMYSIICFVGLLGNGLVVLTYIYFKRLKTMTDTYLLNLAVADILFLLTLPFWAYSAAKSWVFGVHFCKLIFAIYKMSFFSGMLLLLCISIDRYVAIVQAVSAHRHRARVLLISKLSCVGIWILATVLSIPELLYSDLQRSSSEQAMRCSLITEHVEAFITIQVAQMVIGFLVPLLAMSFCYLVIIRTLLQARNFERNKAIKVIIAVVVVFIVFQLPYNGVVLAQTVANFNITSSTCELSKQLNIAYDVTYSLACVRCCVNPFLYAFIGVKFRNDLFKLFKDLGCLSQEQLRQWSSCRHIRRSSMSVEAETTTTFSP

[5] = biological target: T1, human CC motif receptor 7 (CCR7); assay: cell-based or functional assay; remark: listed apart in the source
[6] = biological target: T1, human CC motif receptor 7 (CCR7); assay: cell-based or functional assay; remark: listed apart in the source
[7] = biological target: T1, human CC motif receptor 7 (CCR7); assay: cell-based or functional assay; remark: listed apart in the source
[8] = biological target: T1, human CC motif receptor 7 (CCR7); assay: cell-based or functional assay; remark: listed apart in the source
[9] = biological target: T1, human CC motif receptor 7 (CCR7); assay: cell-based or functional assay; remark: listed apart in the source

Sequence of MCL-1 (Q07820 whole entry, species assumed): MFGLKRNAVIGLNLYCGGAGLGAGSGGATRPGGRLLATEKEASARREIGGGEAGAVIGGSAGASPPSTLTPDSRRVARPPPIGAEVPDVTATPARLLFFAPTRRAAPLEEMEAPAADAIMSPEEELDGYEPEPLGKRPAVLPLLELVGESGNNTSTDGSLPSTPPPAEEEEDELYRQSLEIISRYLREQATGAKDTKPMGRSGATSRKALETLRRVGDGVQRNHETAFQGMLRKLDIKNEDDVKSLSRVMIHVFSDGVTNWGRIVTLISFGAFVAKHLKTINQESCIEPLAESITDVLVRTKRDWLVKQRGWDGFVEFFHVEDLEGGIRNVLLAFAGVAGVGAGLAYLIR
Sequence of Bcl-2 (P10415 whole entry): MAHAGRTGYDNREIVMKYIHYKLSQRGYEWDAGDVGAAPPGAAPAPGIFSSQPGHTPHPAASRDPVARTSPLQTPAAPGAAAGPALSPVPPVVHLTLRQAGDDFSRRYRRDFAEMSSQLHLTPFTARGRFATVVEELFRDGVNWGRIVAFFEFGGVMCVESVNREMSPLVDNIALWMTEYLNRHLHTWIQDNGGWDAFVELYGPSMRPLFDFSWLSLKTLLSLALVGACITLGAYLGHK
Sequence of CD20 (human) (P11836 whole entry): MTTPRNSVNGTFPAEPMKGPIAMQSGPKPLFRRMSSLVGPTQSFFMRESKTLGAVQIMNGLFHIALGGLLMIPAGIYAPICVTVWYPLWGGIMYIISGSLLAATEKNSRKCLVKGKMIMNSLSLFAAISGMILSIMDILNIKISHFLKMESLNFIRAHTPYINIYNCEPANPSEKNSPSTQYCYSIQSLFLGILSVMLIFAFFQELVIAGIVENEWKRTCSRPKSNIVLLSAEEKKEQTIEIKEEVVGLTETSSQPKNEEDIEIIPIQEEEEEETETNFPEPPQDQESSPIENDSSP

## CN(C)CC[C@H](CSc1ccccc1)Nc1ccc(S(=O)(=O)NC(=O)c2ccc(N3CCN(Cc4ccccc4-c4ccc(Cl)cc4)CC3)cc2)cc1[N+](=O)[O-] [ABT-737, 4-[4-[(4′-chloro[1,T-biphenyl]-2-yl)methyl]-1-piperazinyl]A/-[[4-[[(1R)-3-(dimethylamino)-1-[(phenylthio)methyl]propyl]amino]-3-nitrophenyl]sulfonyl]benzamide]
Bcl-2
  affinity for Bcl-2, Bcl-xL and Bcl-w compared with previous Bcl-2 inhibitors: higher affinity
MCL-1
  activity against MCL-1: not A1 or Mcl-1
[1]
  sensitivity of primary cells: sensitive
[2]; animal models
  survival: improves survival
  tumor regression: causes tumor regression
[2]; preclinical studies utilizing patient xenografts
  efficacy in patient xenografts: shows efficacy

## CC#CC(=O)N1CCC[C@H]1c1nc(-c2ccc(C(=O)Nc3ccccn3)cc2)c2c(N)nccn12 [acalabrutinib]
CCR7
  change in surface CCR7 expression compared with naïve patients: unchanged; also recorded: no changes

## CC1(C)CCC(c2ccc(Cl)cc2)=C(CN2CCN(c3ccc(C(=O)NS(=O)(=O)c4ccc(N[C@H](CCN5CCOCC5)CSc5ccccc5)c(S(=O)(=O)C(F)(F)F)c4)cc3)CC2)C1 [navitoclax, 4-(4-{[2-(4-Chlorophenyl)-5,5-dimethyl-1-cyclohexen-1-yl]methyl}-1-piperazinyl)-N-[(4-{[(2R)-4-(4-morpholinyl)-1-(phenylsulfanyl)-2-butanyl]amino}-3-[(trifluoromethyl)sulfonyl]phenyl)sulfonyl]-benzamide]
Bcl-2
  affinity for Bcl-2, Bcl-xL and Bcl-w compared with previous Bcl-2 inhibitors: higher affinity
MCL-1
  activity against MCL-1: not A1 or Mcl-1

## CC1(C)CCC(CN2CCN(c3ccc(C(=O)NS(=O)(=O)c4ccc(NCC5CCOCC5)c([N+](=O)[O-])c4)c(Oc4cnc5[nH]ccc5c4)c3)CC2)=C(c2ccc(Cl)cc2)C1 [venetoclax]
CCR7; CLL cells from patients on treatment
  percentage of CCR7-expressing CLL cells: approximately 100%
CCR7
  change in surface CCR7 expression compared with naïve patients: maintained in essentially all CLL cells
BCL-XL and BCL-W
  binding affinity to BCL-XL and BCL-W: significantly lower affinity
  inhibition of Bcl-xL or Bcl-w: not Bcl-xL or Bcl-w
MCL-1
  activity against MCL-1: no activity
[3]
  clinical response: Good responses
  thrombocytopenia: not observed

## C=CC(=O)N1CCC([C@@H]2CCNc3c(C(N)=O)c(-c4ccc(Oc5ccccc5)cc4)nn32)CC1 [zanabrutinib]
CCR7
  change in surface CCR7 expression compared with naïve patients: unchanged; also recorded: no changes

## RTX (antibody)
CD20 (human)
  EC50 (read off the curve); ADCC on CLL cells of a patient receiving venetoclax: 2 µg/mL

## oblimersen
Bcl-2 mRNA
  cell proliferation: inhibited

B1: CAP-100 (antibody, human IgG1, V domains shown)
VH: EVQLLESGGGFVKPGGSLKLSCVVSGLTFRDFAMSWVRQTPEKRLVWVATISSGGFYTYYPDSVKGRFTISRDNVRNILYLQMSSLRSEDTAVYYCVRRAYRYDGTGDYSALDYWGTGTTVTVSS
VL: DIQMTQSPSSLSASVGDRVTITCRASQDIGPSLNWYQQKPGKAPKRLIYATSNLDSGVPSRFSGSGSGTDFTLTISSLQPEDFATYYCLQFASSPLTFGQGTKVEIK
[4]
  IC50 (read off the curve); CCL21-induced migration of CLL cells of a patient receiving venetoclax: ~0.1 µg/mL
[5]
  IC50 (read off the curve); CCL19-induced migration of CLL cells of an ibrutinib patient: ~0.2 µg/mL
[6]
  EC50 (read off the curve); ADCC on CLL cells of a patient receiving ibrutinib: ~1 µg/mL
[7]
  EC50 (read off the curve); ADCC on CLL cells of a patient receiving zanabrutinib: ~0.8 µg/mL
[8]
  EC50 (read off the curve); ADCC on CLL cells of a patient receiving venetoclax: ~0.2 µg/mL
[9]
  EC50 (read off the curve); ADCC on CLL cells of a patient with disease relapsed/refractory to ibrutinib: ~1 µg/mL

— patent publication US20220380476A1, “Use of an anti-CCR7 antibody in combination therapies with a BTK inhibitor and/or BCL2- inhibitor for treating hematological malignancies” (Catapult Therapeutics B.V., priority 2019, published 2022)
